Reference: PubChem BioAssay (NCI)
Values after ≈ are worked out from the molar mass of the structure shown.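 Exposure lasted 48 hours, with cells grown in 96-well plates and compounds tested at five concentrations. GI50 = concentration required for 50% inhibition of growth. TGI marks complete inhibition of growth.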

What was measured:
Assay in all cases: growth of human tumour cells (NCI), 48 h
MCF7 breast = tested on: MCF7 breast
NCI-H460 lung = tested on: NCI-H460 lung
SN12C renal = tested on: SN12C renal
HL-60(TB) leukemia = tested on: HL-60(TB) leukemia
NCI-H23 lung = tested on: NCI-H23 lung
SK-MEL-5 melanoma = tested on: SK-MEL-5 melanoma
NCI/ADR-RES ovarian = tested on: NCI/ADR-RES ovarian
SF-268 CNS = tested on: SF-268 CNS
UACC-62 melanoma = tested on: UACC-62 melanoma
ACHN renal = tested on: ACHN renal

| SMILES | TGI (MCF7 breast) | TGI (NCI-H460 lung) | TGI (SN12C renal) | TGI (HL-60(TB) leukemia) | TGI (NCI-H23 lung) | TGI (SK-MEL-5 melanoma) | TGI (NCI/ADR-RES ovarian) | TGI (SF-268 CNS) | TGI (UACC-62 melanoma) | TGI (ACHN renal) | GI50 (MCF7 breast) [µg/mL] | GI50 (NCI-H460 lung) [µg/mL] | GI50 (SN12C renal) [µg/mL] | GI50 (HL-60(TB) leukemia) [µg/mL] | GI50 (ACHN renal) [µg/mL] | GI50 (NCI-H23 lung) | GI50 (SK-MEL-5 melanoma) [µg/mL] | GI50 (NCI/ADR-RES ovarian) [µg/mL] | GI50 (SF-268 CNS) [µg/mL] | GI50 (UACC-62 melanoma) [µg/mL] |
| --- | --- | --- | --- | --- | --- | --- | --- | --- | --- | --- | --- | --- | --- | --- | --- | --- | --- | --- | --- | --- |
| Cc1c2ccncc2cc2c1[nH]c1ccccc12 | 23.5 µM | 5.77 µM | 9.12 µM | 6.36 µM | 15.9 µM | 11.2 µM | > 56.4 µM | 32.3 µM | 20.7 µM | – | – | – | – | – | – | – | – | – | – | – |
| Nc1[nH]nc(Nc2ccc(Cl)cc2)c1P(=O)(c1ccccc1)c1ccccc1 | > 100 µM | > 100 µM | – | 82.3 µM | > 100 µM | 67.7 µM | 52.3 µM | 33.8 µM | 56.4 µM | > 100 µM | – | – | – | – | – | – | – | – | – | – |
| CC(=O)Nc1ccc(C(=O)NN2C(=O)C(Cl)/C2=C/c2ccco2)cc1 (stereo not given) | – | > 100 µM | – | > 100 µM | > 100 µM | > 100 µM | – | > 100 µM | > 100 µM | > 100 µM | – | – | – | – | – | – | – | – | – | – |
| CC(=O)c1c(C)nc(SSc2nc(C)c(C(C)=O)c(-c3ccc(Cl)cc3)c2C#N)c(C#N)c1-c1ccc(Cl)cc1 | > 150 µg/mL | > 150 µg/mL | 15 µg/mL | > 150 µg/mL | > 150 µg/mL | > 150 µg/mL | > 150 µg/mL | > 150 µg/mL | > 150 µg/mL | > 150 µg/mL | > 150 | 136 (≈ 225 µM) | 15 (≈ 24.9 µM) | > 150 | 76.9 (≈ 127 µM) | 67.4 µg/mL | 61.7 (≈ 102 µM) | 118 (≈ 196 µM) | 102 (≈ 169 µM) | 29 (≈ 48 µM) |
| CC(=O)OCC1OC(n2cc(F)c(=O)[nH]c2=O)C(NC(=O)OCc2ccccc2)C(OC(C)=O)C1OC(C)=O (stereo not given) | > 100 µM | > 100 µM | > 100 µM | > 100 µM | > 100 µM | > 100 µM | > 100 µM | > 100 µM | > 100 µM | – | – | – | – | – | – | – | – | – | – | – |
| CCP(=O)(CC)C(Cl)Cl | > 100 µM | > 100 µM | > 100 µM | > 100 µM | > 100 µM | > 100 µM | > 100 µM | – | – | > 100 µM | – | – | – | – | – | – | – | – | – | – |
| COc1cc(C(C)O)c(S(=O)(=O)CC(C)O)nn1 (stereo not given) | > 100 µM | > 100 µM | > 100 µM | > 100 µM | > 100 µM | > 100 µM | > 100 µM | – | > 100 µM | > 100 µM | – | – | – | – | – | – | – | – | – | – |
| O=C(N/N=C/c1cc(Cl)cc(Cl)c1[O-])c1ccccc1O.O=C(N/N=C/c1cc(Cl)cc(Cl)c1[O-])c1ccccc1O.[Co+2] | – | 11.1 µM | – | 0.634 µM | 5.47 µM | 2.53 µM | – | 21.2 µM | 3.43 µM | 10.7 µM | – | – | – | – | – | 0.814 µM | – | – | – | – |
| O=C1CC2CC3OC3[C@H]3c4cc5c(cc4C(=O)N1C23)OCO5 (stereo not given in full) | – | > 100 µM | > 100 µM | > 100 µM | – | – | – | > 100 µM | > 100 µM | > 100 µM | – | – | – | – | – | – | – | – | – | – |
